According to the NIST ThermoML archive (doi:10.1016/j.jct.2012.03.022):
± gives the expanded uncertainty stated by the source.

Conditions: Liquid, Closed cell (Static) method

## CC(F)F [1,1-difluoroethane]
258.15 K
  vapor or sublimation pressure: 148.6 ± 1 kPa
268.15 K
  vapor or sublimation pressure: 219.4 ± 1.1 kPa
278.15 K
  vapor or sublimation pressure: 314.1 ± 1.1 kPa
288.15 K
  vapor or sublimation pressure: 437.8 ± 1.2 kPa
